# Assays:
# Type in all cases: in vivo
# [1] = tested on: diamond-back moth (Plutella xylostella) (field-strain); experiment: Hatching of diamond-back moth eggs laid on dipped germinated Japanese radish (Test Example 3); settings: 1.25 ppm (diluted 80,000 times with water); radish dipped 30 seconds before egg laying; hatching counted after 5 days; repeated twice; four grades
# Protocol: Two pieces of germinated Japanese radish which had been sowed 5 or 6 days before were dipped for 30 seconds in the aqueous dilute solution. After air-drying for about 1 hour, these germinated radish were put in a cage wherein a large number of adult diamond-back moth (Plutella xylostella) (field-strain) of an age of 1-3 days after the emergence were released, and they were allowed to lay eggs. When the number of eggs per germinated radish reached 100 to 150, the radish were taken out of the cage and each two pieces thereof were put in a polyethylene cup of 5.5 cm in diameter. After 5 days, the number of hatching was counted to obtain percentage of hatching. The test was repeated twice.
# [2] = tested on: tobacco cutworm (Spodoptera litura); experiment: Mortality of tobacco cutworm larvae on sprayed cabbage (Test Example 2); settings: for mortality at 0.5 ppm: Spodoptera litura, 120 h; for Mortality (%): 0.5 ppm (diluted 200,000 times with water), 30 ml sprayed onto cabbage, 5 fourth-instar larvae, after 5 days, repeated three times
# Protocol: The emulsifiable concentrate of each of the following present compounds and controls prepared according to Formulation Example 1 was diluted 200,000 times with water (corresponding to 0.5 ppm). And 30 ml of each aqueous dilute solution thus obtained were sprayed onto cabbage cultivated in a plastic cup on a turn table, which cabbage had been planted one month before. After air-drying, 5 fourth-instar larvae of tobacco cutworm (Spodoptera litura) were released thereon, and after 5 days, the dead and alive were counted for mortality. This test was repeated three times.
# [3] = tested on: common mosquito (Culex pipiens pallens); experiment: Inhibition of adult emergence of common mosquito larvae in aqueous dilute emulsion (Test Example 1); settings: 3.5 ppm (emulsifiable concentrate diluted 28,600 times with water), 20 last-instar larvae in 100 ml, bred until emergence, repeated twice
# Protocol: The emulsifiable concentrate of each of the following present compounds prepared according to Formulation Example 1 was diluted 28,600 times with water (corresponding to 3.5 ppm). And 100 ml of each aqueous dilute emulsion thus obtained were charged in a 180-ml polyethylene cup. Then 20 last-instar larvae of common mosquito (Culex pipiens pallens) were released therein. The larvae were bred on baits until emergence to obtain percentage of inhibition of adult emergence. The test was repeated twice.
SMILES,Percentage of hatching [1],mortality at 0.5 ppm [2] [%],inhibition at 3.5 ppm [3] [%],Mortality (%) [2] [%]
O=C(NC(=O)c1c(F)cccc1F)Nc1ccc(OC(F)(F)C(F)(F)Br)cc1F [(1)],A (A: 0%),100,100,–
O=C(NC(=O)c1c(F)cccc1F)Nc1ccc(OC(F)(F)C(Cl)Cl)cc1F [(2)],A (A: 0%),93,100,–
O=C(NC(=O)c1ccccc1Cl)Nc1ccc(OC(F)(F)C(Cl)Cl)cc1F [(3)],A (A: 0%),100,100,–
O=C(NC(=O)c1c(F)cccc1F)Nc1ccc(OC(F)(F)C(Br)Br)cc1F [(4)],A (A: 0%),100,100,–
O=C(NC(=O)c1c(F)cccc1F)Nc1ccc(OC(F)(F)C(F)Cl)cc1F (stereo not shown) [(5)],A (A: 0%),93,100,–
O=C(NC(=O)c1ccccc1Cl)Nc1ccc(OC(F)(F)C(F)Cl)cc1F (stereo not shown) [(6)],A (A: 0%),100,100,–
O=C(NC(=O)c1c(F)cccc1F)Nc1ccc(OC(F)(F)C(F)C(F)(F)F)cc1F (stereo not shown) [(7)],A (A: 0%),100,100,–
O=C(NC(=O)c1ccccc1Cl)Nc1ccc(OC(F)(F)C(F)C(F)(F)F)cc1F (stereo not shown) [(8)],A (A: 0%),100,100,–
O=C(NC(=O)c1c(F)cccc1F)Nc1ccc(OC(F)(F)C(F)OC(F)(F)C(F)(F)C(F)(F)F)cc1F (stereo not shown) [(9)],A (A: 0%),100,100,–
O=C(NC(=O)c1ccccc1Cl)Nc1ccc(OC(F)(F)C(F)OC(F)(F)C(F)(F)C(F)(F)F)cc1F (stereo not shown) [(10)],A (A: 0%),100,100,–
O=C(NC(=O)c1c(F)cccc1F)Nc1ccc(OC(F)(F)C(F)OC(F)(F)F)cc1F (stereo not shown) [(11)],A (A: 0%),100,100,–
O=C(NC(=O)c1ccccc1Cl)Nc1ccc(OC(F)(F)C(F)OC(F)(F)F)cc1F (stereo not shown) [(12)],A (A: 0%),100,100,–
"O=C(NC(=O)c1c(F)cccc1F)Nc1ccc(Cl)cc1 [(A), reference compound]",D (D: 21% or more),–,–,13
"O=C(NC(=O)c1ccccc1Cl)Nc1ccc(OC(F)(F)F)cc1 [(B), reference compound]",D (D: 21% or more),–,–,0

# From patent publication EP0337600A2, “Benzoylurea derivative, process for producing the same, insecticide containing the same, reaction intermediate of the same and process for producing the intermediate” (priority 1988, dated 1989)
